Test results from US20260021167A1, “COMPOSITIONS AND METHODS FOR TREATING OR PREVENTING NEURODEGENERATIVE DISEASES” (Delaware State University, priority 2022, published 2026).
“Also recorded” adds a separate entry of the source.

Experiments:
Format in all cases: in vivo, mouse
[1] = system: phosphorylated Ser-129-α-synuclein; assay: Immunohistochemistry of phosphorylated Ser-129-α-synuclein in brain sections of PFF-injected mice
[2] = system: PFF-injected mice; assay: Behavioral tests overall in PFF-injected mice; details: 10 or 50 mg/kg oral
Experimental: (§1) A mouse model of Parkinson's disease is C57BL/6 male or female mice (50% each) injected with 5 μg of mouse PFF at 12 months old, followed by a treatment below for 6-7 weeks: • 1) without PFF injection, followed by vehicle (control, n=7); • 2) PFF injection, followed by vehicle (PFF only: control, n=8); • 3) PFF injection, followed by daily 10 mg/kg Momordin gavage (n=7-8); • 4) PFF injection, followed by daily 50 mg/kg Momordin gavage (n=7-8).
Behavioral tests were performed using the methods described in Ghosh et al. (Int J Mol Sci. 2022 Apr. 12; 23 (8): 4262) (FIG. 11A).

[3] = system: phosphorylated α-synuclein; assay: Western blot of phosphorylated α-synuclein in α-synuclein IP tissue samples; details: PFF-injected mice, vs PFF only
Experimental: A) In Western blots, Momordin reversed the toxicity from PFF injection in reducing phospho-α-synuclein and SENP-1 on α-synuclein in the MB and STR. […] A pathological marker, phosphorylated α-synuclein was increased by PFF injection, which was reversed by Momordin treatment in the MB (F) and the STR (G).
as §1

[4] = both 10 and 50 mg/kg oral, PFF-injected mice, vs PFF only

SMILES: CC1(C)CC[C@]2(C(=O)O)CC[C@]3(C)C(=CC[C@@H]4[C@@]5(C)CC[C@H](O[C@@H]6O[C@H](C(=O)O)[C@@H](O)[C@H](O[C@@H]7OC[C@@H](O)[C@H](O)[C@H]7O)[C@H]6O)C(C)(C)[C@@H]5CC[C@]43C)[C@@H]2C1 [Momordin lc]
- accumulation of phosphorylated alpha-synuclein in multiple brain regions ([1]; 10 or 50 mg/kg oral for 6-7 weeks, 15-16 month-old mice, 3-4 months after PFF injection): sufficient to prevent the accumulation; also recorded: effective to prevent the accumulation
- level of phospho-α-synuclein in the SNc (IHC) [1, 4]: significantly reduced
- level of phospho-α-synuclein in the striatum (IHC) [1, 4]: significantly reduced
- behavioral / motor deficits derived from PFF injection [2]: improved the behavioral deficits
- behavioral / motor deficits derived from PFF injection ([2]; listed as Momordin): alleviates severe motor deficits
- phosphorylated α-synuclein in the MB (α-synuclein IP) ([3]; midbrain): reversed
- phosphorylated α-synuclein in the STR (α-synuclein IP) ([3]; striatum): reversed
